Assays:
[1] = target: T1, human dopamine D3 receptors (Homo sapiens, UniProt P35462); assay: Dopamine D3 receptor binding, displacement of [125I]-iodosulpride; details: membranes from HEK-293 cells with stably expressed human D3 receptors, 0.1 nM [125I]-iodosulpride
T1 construct: expressed in transfected cells
Protocol: (§1) The substance to be tested was dissolved either in methanol/Chremophor® (BASF-AG) or in dimethyl sulfoxide and then diluted with water to the desired concentration.
(§2) Triplicate mixtures were carried out.
The incubation buffer contained 50 mM Tris, 120 mM NaCl, 5 mM KCl, 2 mM CaCl2, 2 mM MgCl2 and 0.1% bovine serum albumin, 10 μM quinolone, 0.1% ascorbic acid (prepared fresh each day). The buffer was adjusted to pH 7.4 with HCl.
(§3) Measurement and Evaluation:
(§4) After incubation at 25° C. for 60 minutes, the mixtures were filtered under vacuum through Whatman GF/B glass fiber filters using a cell harvester. The filters were transferred by a filter transfer system into scintillation vials. After addition of 4 ml of Ultima Gold® (Packard), the samples were shaken for one hour and then the radioactivity was calculated in a beta counter (Packard, Tricarb 2000 or 2200CA). The cp values were converted into dpm by means of a standard quench series with the aid of the instrument's own program.
(§5) Evaluation of the inhibition plots took place by iterative nonlinear regression analysis using the Statistical Analysis System (SAS) similar to the “LIGAND” program described by Munson and Rodbard.

[2] = target: T2, human dopamine D2L receptors (long isoform) (Homo sapiens, UniProt P14416); assay: Dopamine D2L receptor binding, displacement of [125I]-iodospiperone; details: *Ki(D2L)/Ki(D3), HEK-293 membranes, 0.01 nM [125I]-iodospiperone
T2 construct: expressed in transfected cells
Protocol: as §1, §2
The incubation buffer contained 50 mM Tris, 120 mM NaCl, 5 mM KCl, 2 mM CaCl2, 2 mM MgCl2 and 0.1% bovine serum albumin. The buffer was adjusted to pH 7.4 with HCl.
as §3, §4, §5

T1 sequence (P35462 whole entry): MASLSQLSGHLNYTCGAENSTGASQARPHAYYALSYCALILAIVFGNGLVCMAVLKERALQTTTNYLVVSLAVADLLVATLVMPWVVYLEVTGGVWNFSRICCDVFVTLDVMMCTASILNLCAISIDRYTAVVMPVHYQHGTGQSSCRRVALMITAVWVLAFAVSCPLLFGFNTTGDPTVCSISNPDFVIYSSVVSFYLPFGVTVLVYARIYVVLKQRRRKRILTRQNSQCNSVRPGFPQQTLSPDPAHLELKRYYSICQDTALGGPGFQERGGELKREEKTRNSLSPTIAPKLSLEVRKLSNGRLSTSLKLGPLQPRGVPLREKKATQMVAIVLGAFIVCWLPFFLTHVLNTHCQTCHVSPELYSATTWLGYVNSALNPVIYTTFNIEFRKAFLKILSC
T2 sequence (P14416 whole entry, canonical isoform): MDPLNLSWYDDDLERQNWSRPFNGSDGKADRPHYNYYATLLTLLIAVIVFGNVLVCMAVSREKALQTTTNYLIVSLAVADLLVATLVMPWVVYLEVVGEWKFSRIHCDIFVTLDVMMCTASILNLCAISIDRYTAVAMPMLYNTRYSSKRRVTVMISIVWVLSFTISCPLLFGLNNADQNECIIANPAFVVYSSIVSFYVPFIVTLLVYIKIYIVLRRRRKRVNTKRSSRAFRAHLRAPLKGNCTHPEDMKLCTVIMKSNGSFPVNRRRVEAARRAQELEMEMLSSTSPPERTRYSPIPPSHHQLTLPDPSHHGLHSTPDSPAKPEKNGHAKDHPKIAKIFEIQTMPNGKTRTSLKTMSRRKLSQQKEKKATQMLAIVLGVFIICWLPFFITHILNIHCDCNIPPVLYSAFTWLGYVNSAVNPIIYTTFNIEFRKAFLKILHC

Row | Ki [1] [nM] | Selectivity D3 vs. D2L* [2] | Structure (SMILES)
1 | 1.87 | 108 | CCCc1cc(N2CCN(CCCCn3ccc(O)nc3=O)CC2)nc(C(C)(C)C)n1 [Example 20, 1-{4-[4-(2-tert-Butyl-6-propylpyrimidin-4-yl)piperazin-1-yl]butyl}-4-hydroxypyrimidin-2(1H)-one]
2 | 1.94 | 96 | CCCc1cc(N2CCN(CCCCn3ccc(C(C)(C)C)nc3=O)CC2)nc(C(C)(C)C)n1.Cl [Example 21, 1-[4-(4-tert-Butyl-2-oxopyrimidin-1 (2H)-yl)butyl]-4-(2-tert-butyl-6-propylpyrimidin-4-yl)piperazin-1-ium chloride]
3 | 1.16 | 77 | Cc1cn(CCCCN2CCN(c3cc(C4CCC4)nc(C(C)(C)C)n3)CC2)c(=O)nc1O [Example 22, 1-{4-[4-(2-tert-Butyl-6-cyclobutylpyrimidin-4-yl)piperazin-1-yl]butyl}-4-hydroxy-5-methylpyrimidin-2(1H)-one]
4 | 1.51 | 63 | CC(C)(C)c1nc(C2CCC2)cc(N2CCN(CCCCn3ccc(=O)[nH]c3=O)CC2)n1 [Example 23, 1-{4-[4-(2-tert-Butyl-6-cyclobutylpyrimidin-4-yl)piperazin-1-yl]butyl}pyrimidine-2,4(1H,3H)-dione]
5 | 8.1 | 55 | Cc1cn(CCCCN2CCN(c3cc(C(F)(F)F)nc(C(C)(C)C)n3)CC2)c(=O)nc1-c1ccccc1 [Example 26, 1-(4-{4-[2-tert-Butyl-6-(trifluoromethyl)pyrimidin-4-yl]piperazin-1-yl}butyl)-5-methyl-4-phenylpyrimidin-2(1H)-one]
6 | 7.64 | 67 | Cc1cc(N2CCN(CCCCn3cc(C)c(O)nc3=O)CC2)nc(C(C)(C)C)n1 [Example 29, 1-{4-[4-(2-tert-Butyl-6-methylpyrimidin-4-yl)piperazin-1-yl]butyl}-4-hydroxy-5-methylpyrimidin-2(1H)-one]
7 | 0.7 | 42 | CC(C)(C)c1cc(N2CCN(CCCCn3ccc(=O)[nH]c3=O)CC2)nc(C(C)(C)C)n1 [Example 33, 1-{4-[4-(2,6-di-tert-Butylpyrimidin-4-yl)piperazin-1-yl]butyl}pyrimidine-2,4(1H,3H)-dione]
8 | 4.96 | 116 | CCCc1cc(N2CCN(CCCCn3ccc(C)nc3=O)CC2)nc(C(C)(C)C)n1.Cl [Example 35, 4-(2-tert-Butyl-6-propylpyrimidin-4-yl)-1-[4-(4-methyl-2-oxopyrimidin-1 (2H)-yl)butyl]piperazin-1-ium chloride]
9 | 3.82 | 209 | C/C(=C\CN1CCN(c2cc(C(F)(F)F)nc(C(C)(C)C)n2)CC1)Cn1cc(C)c(=O)[nH]c1=O [Example 36, 1-((2E)-4-{4-[2-tert-Butyl-6-(trifluoromethyl)pyrimidin-4-yl]piperazin-1-yl}-2-methylbut-2-en-1-yl)-5-methylpyrimidine-2,4(1H,3H)-dione]
10 | 3.24 | 126 | Cc1cn(CC(C)CCN2CCN(c3cc(C(F)(F)F)nc(C(C)(C)C)n3)CC2)c(=O)[nH]c1=O (centres unmarked) [Example 37, 1-(4-{4-[2-tert-Butyl-6-(trifluoromethyl)pyrimidin-4-yl]piperazin-1-yl}-2-methylbutyl)-5-methylpyrimidine-2,4(1H,3H)-dione]
11 | 5.33 | 103 | CCCc1cc(N2CCN(C(C)CCCn3cc(C)c(=O)[nH]c3=O)CC2)nc(C(C)(C)C)n1.Cl (centres unmarked) [Example 38, 4-(2-tert-Butyl-6-propylpyrimidin-4-yl)-1-[1-methyl-4-(5-methyl-2,4-dioxo-3,4-dihydropyrimidin-1 (2H)-yl)butyl]piperazin-1-ium chloride]
12 | 6.09 | 66 | Cc1ccn(CCCCN2CCN(c3cc(C(C)C)nc(C(C)(C)C)n3)CC2)c(=O)n1.Cl [Example 39, 4-(2-tert-Butyl-6-isopropylpyrimidin-4-yl)-1-[4-(4-methyl-2-oxopyrimidin-1 (2H)-yl)butyl]piperazin-1-ium chloride]
13 | 2.12 | 67 | Cc1cn(CCCCN2CCN(c3cc(C(C)C)nc(C(C)(C)C)n3)CC2)c(=O)[nH]c1=O.Cl [Example 40, 4-(2-tert-Butyl-6-isopropylpyrimidin-4-yl)-1-[4-(5-methyl-2,4-dioxo-3,4-dihydro-2H-pyrimidin-1-yl)-butyl]piperazin-1-ium chloride]
14 | 5.78 | 62 | CCCc1cc(N2CCN(CCCCn3ccc(C(F)(F)F)nc3=O)CC2)nc(C(C)(C)C)n1 [Example 41, 1-{4-[4-(2-tert-Butyl-6-propylpyrimidin-4-yl)piperazin-1-yl]butyl}-4-trifluoromethyl-1H-pyrimidin-2-one]
15 | 0.63 | 158 | CCCc1cc(N2CCN(CCCCn3ccc(-c4ccc(F)cc4)nc3=O)CC2)nc(C(C)(C)C)n1 [Example 44, 1-{4-[4-(2-tert-Butyl-6-propylpyrimidin-4-yl)piperazin-1-yl]butyl}-4-(4-fluorophenyl)-1H-pyrimidin-2-one]
16 | 4.99 | 37 | CC(C)(C)c1nc(N2CCN(CCCCn3ccc(-c4ccc(F)cc4)nc3=O)CC2)cc(C(F)(F)F)n1.Cl [Example 45, 4-(2-tert-Butyl-6-trifluoromethylpyrimidin-4-yl)-1-{4-[4-(4-fluorophenyl)-2-oxo-2H-pyrimidin-1-yl]butyl}piperazin-1-ium chloride]
17 | 5.41 | 43 | C/C(=C\CN1CCN(c2cc(C(F)(F)F)nc(C(C)(C)C)n2)CC1)Cn1ccc(=O)[nH]c1=O [Example 46, 1-(2E)-{4-[4-(2-tert-Butyl-6-trifluoromethylpyrimidin-4-yl)piperazin-1-yl]-2-methylbut-2-enyl}-1H-pyrimidine-2,4-dione]
18 | 4.87 | 51 | CCCc1cc(N2CCN(CCCCn3cc(C#N)c(=O)[nH]c3=O)CC2)nc(C(C)(C)C)n1 [Example 47, 1-{4-[4-(2-tert-Butyl-6-propylpyrimidin-4-yl)piperazin-1-yl]butyl}-2,4-dioxo-1,2,3,4-tetrahydropyrimidine-5-carbonitrile]
19 | 0.54 | 86 | CCCc1cc(N2CCN(CCCCn3ccc(-c4ccccc4)nc3=O)CC2)nc(C(C)(C)C)n1 [Example 49, 1-{4-[4-(2-tert-Butyl-6-propylpyrimidin-4-yl)piperazin-1-yl]butyl}-4-phenyl-1H-pyrimidin-2-one]
20 | 0.72 | 77 | CCCc1cc(N2CCN(CCCCn3ccc(-c4ccco4)nc3=O)CC2)nc(C(C)(C)C)n1 [Example 50, 1-{4-[4-(2-tert-Butyl-6-propylpyrimidin-4-yl)piperazin-1-yl]butyl}-4-furan-2-yl-1H-pyrimidin-2-one]
21 | 2.28 | 97 | CC(C)(C)c1nc(N2CCN(CCCCn3cc(Cl)c(=O)[nH]c3=O)CC2)cc(C(F)(F)F)n1 [Example 52, 1-{4-[4-(2-tert-Butyl-6-trifluoromethylpyrimidin-4-yl)piperazin-1-yl]butyl}-5-chloro-1H-pyrimidine-2,4-dione]
22 | 2.32 | 56 | CCCc1cc(N2CCN(CCCCn3cc(F)c(=O)[nH]c3=O)CC2)nc(C(C)(C)C)n1 [Example 53, 1-{4-[4-(2-tert-Butyl-6-propylpyrimidin-4-yl)piperazin-1-yl]butyl}-5-fluoro-1H-pyrimidine-2,4-dione]

Source: patent US8008488B2 (Abbott GmbH & Co. KG, priority 2003, dated 2011)
